Experimental findings from patent US10894817B2, “Fatty acid modified urocortin-2 analogs for the treatment of diabetes and chronic kidney disease” (priority 2016, dated 2021) are described below.

As usually defined, the Tmax is the time at which the peak concentration occurs. One may read the AUC(0-inf) as the area under the concentration-time curve extrapolated to infinity. A higher AUC(0-inf) goes with more exposure. Usually Cmax stands for the maximum level reached in the sampled fluid or tissue. What is called pEC50 is −log10 of the EC50, conventionally taken in molar units.

pEC50: −log10 of the molar value. Where “and” joins values, the source holds several entries; their conditions need not be identical. Equal entries are not always repeated. Starred links: 1 amine or outer side, 2 acyl side, 3 side chain; linkers in the order of their positions; H or OH if unused. Residues, ends and D or L forms follow the SMILES beside them. Groups on a side chain read outwards from the residue. *: point of attachment. C20 diacid = O=C(O)CCCCCCCCCCCCCCCCCCC(=O)*; γGlu = O=C(O)[C@H](CCC(=O)[*:2])N[*:1]; AEEA = NCCOCCOCC(=O)O

A short description of series [1]: Pharmacokinetics, single subcutaneous dose, monkeys.
Description: (§1) Plasma concentrations of compounds were determined by LC/MS methods. Each method measured the intact compound; peptide plus linked time extension. For each assay, the compound and an analog, used as an internal standard (IS), were extracted from 100% mouse, rat or monkey plasma (25 μl) using acetonitrile. Two distinct layers were formed upon centrifugation with the compound and the IS located in the supernatant layer. An aliquot of the supernatant (80 μl) was transferred to a Thermo Protein Precipitation Plate with water (150 μl) and formic acid (25 μl) followed by mixing. A final 31% acetonitrile in 10% formic acid sample (10 μl) was loaded onto a Supelco Analytical Discovery BIO Wide Pore C5-3 column (5 cm×1 mm, 3 μm). The column effluent was directed into a Thermo Q-Exactive mass spectrometer for detection and quantitation.
Male Cynomolgus monkeys were administered a single subcutaneous dose or intravenous dose (96.4 nmol/kg) of a compound described herein in 20 mM Tris-HCl Buffer (pH 7) at a volume of 1 mL/kg. Blood was collected from each animal at 2, 6, 24, 48, 72, 96, 168, 240, 336, 408, and 504 hours postdose for pharmacokinetic characterization.
Male Cynomolgus monkeys were also administered a single subcutaneous dose (50 nmol/kg) of a compound described herein in 20 mM Tris-HCl Buffer (pH 8) at a volume of 0.26 mL/kg. Blood was collected from each animal at 3, 6, 12, 24, 48, 72, 96, 120, 168, 192, 240, 336, 408, and 504 hours postdose for pharmacokinetic characterization.
Series [2] can be described thus: Pharmacokinetics, single subcutaneous dose, rats. The conditions noted are these: rat, sc, 150 nmol/kg; for Tmax: in vivo, male Sprague Dawley rats, single 150 nmol/kg s.c.
Description: as §1
Male Sprague Dawley rats were administered a single subcutaneous dose (50 or 150 nmol/kg) of a compound described herein in 20 mM Tris-HCl Tris Buffer (pH 8) at a volume of 0.26 or 0.77 mL/kg.
Series [3] can be described thus: Pharmacokinetics, single subcutaneous dose, mice. Particulars: sc, 386 nmol/kg.
For series [4], the target named is T1, human CRHR1 (Homo sapiens, UniProt P34998).
T1 construct: which expresses endogenous human CRHR1; host or cells: Y79 human retinoblastoma cells
T1 sequence (P34998 24-415): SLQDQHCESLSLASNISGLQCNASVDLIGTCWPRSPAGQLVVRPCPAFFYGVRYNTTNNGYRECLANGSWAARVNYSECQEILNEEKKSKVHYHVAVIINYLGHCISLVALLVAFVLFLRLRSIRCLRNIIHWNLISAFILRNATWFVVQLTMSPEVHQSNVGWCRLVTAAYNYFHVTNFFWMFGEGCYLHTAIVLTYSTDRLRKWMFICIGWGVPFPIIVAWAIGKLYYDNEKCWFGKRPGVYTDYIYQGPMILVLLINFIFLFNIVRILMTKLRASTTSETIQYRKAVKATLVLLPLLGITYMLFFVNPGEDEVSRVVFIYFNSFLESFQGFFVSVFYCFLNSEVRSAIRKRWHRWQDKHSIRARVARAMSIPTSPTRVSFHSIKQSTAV
As to the kind of experiment: human CRHR1 cell-based cAMP assay (Y79 cells). Particulars: Y79 cells with endogenous human CRHR1, mean ± SEM of runs, read-out: hCRHR1 Average EC50. The protocol:
CRHR agonistic activity is measured in a cell-based cAMP assay. Serial dilutions of the test peptides are made in assay buffer containing Hank's Balanced Salt Solution (HBSS, without phenol red) supplemented with 20 mM HEPES and 0.05% lactalbumin enzymatic hydrolysate (LAH) (“assay buffer”). The highest concentration that is used starts from 1 μM in the human CRHR2b, whereas 100 μM starting concentration is used in the human CRHR1 assay. A one to three dilution of the test peptides is used in both assays.
The human Retinoblastoma cell line Y79 (ATCC #HTB-18), which expresses endogenous human CRHR1, is used in the human CRHR1 assay. The cells are grown in RPMI 1640 (Hyclone, #SH30255) containing 20% fetal bovine serum and 10 mM HEPES, in suspension culture. Cells are centrifuged to remove the culture media and washed once in HBSS supplemented with 20 mM HEPES. The cells are resuspended in the assay buffer and 20,000 cells are used per treatment in the human CRHR1 assay.
The cells are dispensed into Costar 96-well black polystyrene half area EIA/RIA plates (Corning Incorporated, Corning, N.Y.) followed by the addition of the diluted peptides, each at a volume of 20 μL. The agonist induced cAMP levels are detected using a HTRF cAMP Dynamic 2 kit (CisBio, Bedford, Mass.). After incubation at 37° C. for 30 min, the assay is stopped by cell lysis via the addition of 20 μL of d2-labeled cAMP and followed by 20 μL of cryptate-labeled anti-cAMP antibody, as described by the manufacturer. Cellular cAMP (as a result of agonist stimulation) competes with the d2-labeled cAMP for binding to the antibody. HTRF detection is performed on an Envision plate reader (Perkin Elmer Life and Analytical Sciences, Waltham, Mass.) by measuring ratiometric emission at 620 and 665 nm after excitation at 320 nm.
The data are converted to picomoles of cAMP using a standard curve obtained from the same assay performed with varying concentrations of unlabeled cAMP. Percent of the maximum activation of the cells is calculated using converted picomole cAMP data by comparing to the amount of cAMP produced by 1 μM human UCN2 for the human CRHR2b or 1 μM human UCN1 for the human CRHR1 assay. The data are analyzed using a Curve Fitting Tool to calculate ED50. Numeric values shown below in Table 1 represent the mean of multiple runs (number of runs shown in parentheses) following the mean value±SEM.
For orientation: Cyclic AMP is a second messenger, typically raised through Gs and lowered through Gi signalling.

Where [5] appears, read: male Cynomolgus monkeys, single 96.4 nmol/kg s.c., individual animal.
Where [6] appears, read: male, cynomolgus monkey, plasma, sc, 96.4 nmol/kg.

With `CC[C@H](C)[C@H](NC(C)=O)C(=O)N[C@H](C(=O)N[C@@H](CC(C)C)C(=O)N[C@@H](CO)C(=O)N[C@@H](CC(C)C)C(=O)N[C@@H](CC(=O)O)C(=O)N[C@H](C(=O)N1CCC[C@H]1C(=O)N[C@H](C(=O)NCC(=O)N[C@@H](CC(C)C)C(=O)N[C@@H](CC(C)C)C(=O)N[C@@H](CCC(N)=O)C(=O)N[C@H](C(=O)N[C@@H](CC(C)C)C(=O)N[C@@H](CC(C)C)C(=O)N[C@@H](CCC(=O)O)C(=O)N[C@@H](CCC(N)=O)C(=O)N[C@@H](CCC(=O)O)C(=O)N[C@@H](CCCCN)C(=O)N[C@@H](CCC(N)=O)C(=O)N[C@@H](CCC(=O)O)C(=O)N[C@@H](CCCCN)C(=O)N[C@@H](CCC(=O)O)C(=O)N[C@@H](CCCCN)C(=O)N[C@@H](CCC(N)=O)C(=O)N[C@@H](CCC(N)=O)C(=O)N[C@@H](C)C(=O)N[C@@H](CCCCNC(=O)COCCOCCNC(=O)COCCOCCNC(=O)CC[C@H](NC(=O)CC[C@H](NC(=O)CCCCCCCCCCCCCCCCCCC(=O)O)C(=O)O)C(=O)O)C(=O)N[C@H](C(=O)N[C@@H](CC(N)=O)C(=O)N[C@@H](C)C(=O)N[C@@H](CCC(N)=O)C(=O)N[C@H](C(=O)N[C@@H](CC(C)C)C(=O)N[C@@H](C)C(=O)N[C@@H](CCC(N)=O)C(=O)N[C@H](C(N)=O)C(C)C)[C@@H](C)CC)[C@@H](C)O)[C@@H](C)CC)[C@@H](C)CC)C(C)C)C(C)C` [Example 2] (Ac-IVLSLDVPIGLLQILLEQEKQEKEKQQAK([AEEA-AEEA-γGlu-γGlu-C20 diacid])TNAQILAQV-NH2), the time to peak (Tmax) in series [1] (cynomolgus monkey, in vivo, sc, 96.4 nmol/kg, Tmax, male Cynomolgus monkeys, single 96.4 nmol/kg s.c., Mean) stood at 36 h; in series [1] (cynomolgus monkey, in vivo, sc, 96.4 nmol/kg, Tmax, male Cynomolgus monkeys, single 96.4 nmol/kg s.c., individual animal), 24 h; in series [1] (setting [5]), 48 h; in series [2] (Mean), 24 h; in series [2] (individual animal), 24 h; in series [3] (mouse, in vivo), 12 h. Besides, the AUC(0-inf) in series [1] (setting [5]) was 237.954 µM·h and 245.711 µM·h; in series [1] (setting [6]), 242 µM·h; in series [2] (male, Sprague Dawley, plasma), 32.3 µM·h; in series [3] (male, CD-1, mouse, plasma), 46.5 µM·h. The Cmax in series [1] (setting [5]) was 1238 nmol/L and 1699 nmol/L; in series [1] (setting [6]) it was 1470 nmol/L; in series [2] (male, Sprague Dawley, plasma), 429 nM; in series [3] (male, CD-1, mouse, plasma) it was 1150 nM. The negative logarithm of the EC50 (pEC50) in series [4] was less than 5.00.
